Measurements from patent US6613317B1, “Volatile attractants for diabrotica species” (priority 1988, dated 2003).
Marks after values point to notes of the source that are not given here.

How the values were obtained:
[1] = system: northern corn rootworm (NCR); experiment: Sticky trap attraction in corn, phenylethanol analogues (Example 6); format: in vivo, Diabrotica barberi; settings: four replicates; for Mean number of NCR per trap (± standard deviation): Table 20, 100 mg per trap, 24 hour
Procedure: (§1) Test chemicals (purchased from Aldrich Chemical Co.; Milwaukee, Wis.) were applied by capillary micropipettes to cotton dental wicks that were attached to tops of 1.0 liter cylindrical paper cartons covered with TangleTrap™, Grand Rapids, Mich. The trapping techniques used were as previously described in Example 1. Unless otherwise indicated, all treatments were made at a dosage of 100 mg or 100 μL of attractant per trap. Control traps had untreated wicks. Four replicates of treated and untreated traps were positioned randomly 10 meters apart on top of 1 m high posts along the edges of 25-50 ha. fields of hybrid corn (Zea mays), infested with adult NCR, SCR, and WCR beetles. Several experiments detailed in the Tables were made in a 0.4 ha plot of sweet corn (Illini X-tra Sweet).
(§2) Attraction of Diabrotica species adults of the sticky traps was measured by the mean number of beetles caught after 1 day (ca. 24 hours) exposure. The significance of the treatments was determined by analysis of variance and the individual means were separated by Duncan's multiple range test (Statistical Package for the Social Sciences, Nie, et al., 2nd. ed. McGraw-Hill, New York (1975). The data was logarithmically transformed for statistical analysis. Means and standard deviations are presented for the untransformed data. Significance levels were set at P=0.05 for all statistical analyses.

[2] = system: southern corn rootworm (SCR) adults; experiment: Sticky trap attraction in sweet corn plots (Example 1); format: in vivo, Diabrotica undecimpunctata howardi; settings: August first year, single compounds 100 mg per trap
Procedure: (§3) The attraction of Diabrotica species to single-component and multicomponent lures was evaluated in corn fields. The field experiments on attraction of SCR and WCR adults were conducted in 0.405-ha (1-acre) plots of “Illini Xtra Sweet” corn grown on the University of Illinois South Farms at Urbana, Ill., over a two year period. Most of the tests were conducted in August to correspond with the peak silk-feeding and oviposition periods of corn rootworm adults in central Illinois. In both years, the sweet corn plot was adjacent to a 0.405-ha trap crop of C. maxima cultivar “Blue Hubbard”, to provide high densitites of SCR and WCR adults in the corn plots (Howe, et al., Environ. Entomol., 5:745-751 (1976), Lampman, et al., J. Chem. Ecol., 13:959-975 (1987).
(§4) Attraction of Diabrotica species to volatile compounds was measured by the average number of beetles cought during a 24-h period on 1.0-liter cylindrical paper cartons (15.2 cm high, 27.9 cm circumference) which were evenly coated with clear insect adhesive, TangleTrap™ (Tanglefood Co., Grand Rapids, Mich.) The candidate attractants were applied by capillary micropiettes to cotton dental wicks (13 mm long by 6 mm diameter) that were previously impregnated with mineral oil to prolong volatilization. The chemicals were purchased from Aldrich Chemical Co., (Milwaukee, Wis.) and assayed by gas chromatography as >97% pure. Indole, a solid at ambient temperatures (m.p. 52-54° C.), was dissolved in glass-distilled acetone before dosing the cotton wicks. For dosage-acticity tests, the various components were mixed in equal quantities by weight and diluted to the appropriate dosage with acetone. Treated and untreated (control) wicks were attached to the top of the paper cartons with TangleTrap™ and the inverted traps were placed on 1-m-high posts between the sweet corn rows. Four replicates of each treatment and a control were conducted in a randomized complete block desgin. The sticky traps within a block (ca. 50-m row of corn) were 5-10 m apart (depending on the number of treatments in a particular test) and the blocks were 3 m apart. The traps were baited and placed in the field between 1000 and 1300 hours and beetle counts were taken after 24 h. The significance of treatments was determined by analysis of variance and the individual means were separated by Duncan's multiple range test (Statistical Package for Social Sciences (SPSS) (Nie, et al., SPSS: statistical package for the social sciences, 2nd ed. McGraw-Hill, N.Y. (1975)). Student's t test was used for comparisons of two means (Sokal, et al., Biometry, Freeman, San Francisco (1969). Significance levels were set at P=0.05 at all statistical analyses.
(§5) The initial field test in August of the first year evaluated the response of SCR and WCR adults of a mixture of veratrole (V), indole (I), phenylacetaldehyde (P), trans-anethole (A), and eugenol (E) (=VIPAE mixture), as well as to the individual components. Each component in the VIPAE mixture was present at a dosage of 20 mg per trap and was compared with the individual components at 100 mg per trap. The response of SCR and WCR adults to a range of VIPAE doses, 1-300 mg, was conducted on the following day. Fifty SCR adults were removed from each 100-mg VIPAE trap, and returned to the laboratory for sex determination. Additional analyses in August evaluated the reduction in trap catches produced by the sequential removal of the individual components from the VIPAE lure. After the primary components of the initial lure were determined, a modified multicomponent lure consisting of veratrole, indole, and phenylacetaldehyde (=VIP mixture) was compared with its individual components to determine whether the attraction of SCR adults was the result of interactive or additive factors. The attraction and synergistic response of SCR adults of the VIP mixture was verified by tests conducted in August of the following year. […]

[3] = system: western corn rootworm (WCR) adults; experiment: as above; format: in vivo, Diabrotica virgifera virgifera; settings: August first year, single compounds 100 mg per trap
Procedure: as §3, §4, §5

[4] = system: western corn rootworm (WCR) adults; experiment: Sticky trap attraction in corn, estragole analogues (Example 3); format: in vivo, Diabrotica virgifera virgifera; settings: 100 mg per trap; for Mean number of WCR per sticky trap (±standard deviation) after 24 hours / Mean number of WCR adults per sticky trap (±standard deviation) after 24 hours: n = 4
Procedure: as §1, with “chemicals” for “chemicals (purchased from Aldrich Chemical Co.; Milwaukee, Wis.)”, “Cinnamyl alcohol, 4-methoxycinnamaldehyde, cinnamyl acetate, and 4-(4′methoxyphenyl)-3-butene-2-one which are solids at ambient temperature were prepared as standard w/v solutions in acetone prior to dosing the cotton wicks. All” for “Unless otherwise indicated, all”
as §2

[5] = system: southern corn rootworm (SCR) adults; experiment: as above; format: in vivo, Diabrotica undecimpunctata howardi; settings: 100 mg per trap, n = 4
Procedure: as §1, with “chemicals” for “chemicals (purchased from Aldrich Chemical Co.; Milwaukee, Wis.)”, “Cinnamyl alcohol, 4-methoxycinnamaldehyde, cinnamyl acetate, and 4-(4′methoxyphenyl)-3-butene-2-one which are solids at ambient temperature were prepared as standard w/v solutions in acetone prior to dosing the cotton wicks. All” for “Unless otherwise indicated, all”
as §2

[6] = South Farms, 24 h, mixture 20 mg of each component, n = 4

## NCCCc1ccccc1 [phenylpropylamine]
[1]
  Mean number of NCR per trap (± standard deviation): 131.5 ± 16.5c per trap

## COc1ccc(CCN)cc1 [4-methoxyphenylethylamine]
[1]
  Mean number of NCR per trap (± standard deviation): 24.2 ± 15.4a per trap

## CC=Cc1cccc(OC)c1 [II, 4-methoxy-2-propenylbenzene]
[2]; [6]
  Mean number of SCR per trap (±standard deviation): 1.5 ± 1.0 per trap
[2]; mixture 20 mg each component
  relative percent activity of the mean SCR trap catch as compared with the highest mean value in the column: 7%
[3]; [6]
  Mean number of WCR per trap (±standard deviation): 9.0 ± 4.3 per trap
[3]; mixture 20 mg each component
  relative percent activity of the mean WCR trap catch as compared with the highest mean value in the column: 100%
[4]; July 30
  Relative percent activity as compared with the highest mean in the column (WCR): 58%
  Mean number of WCR per sticky trap (±standard deviation) after 24 hours: 48.0 ± 23.3 per sticky trap

## COc1ccc(C=CC#N)cc1 [IX, 4-methoxycinnamonitrile]
[4]; August 4 second year
  Mean number of WCR adults per sticky trap (±standard deviation) after 24 hours: 196.0 ± 145.3^de per sticky trap
[4]; August 5 first year
  Mean number of WCR adults per sticky trap (±standard deviation) after 24 hours: 59.0 ± 32.1^d per sticky trap
[5]; August 4 second year
  Mean number of SCR adults per sticky trap (±standard deviation) after 24 hours: 4.0 ± 2.2^ab per sticky trap
[5]; August 5 first year
  Mean number of SCR adults per sticky trap (±standard deviation) after 24 hours: 6.5 ± 3.0^a per sticky trap

## CCCc1ccc(OC)cc1 [IV, 4-methoxy-1-propylbenzene]
[4]; July 30
  Relative percent activity as compared with the highest mean in the column (WCR): 37%
  Mean number of WCR per sticky trap (±standard deviation) after 24 hours: 30.5 ± 11.0 per sticky trap

## COc1ccc(C=CC(C)=O)cc1 [XVI, 4-(4′-methoxyphenyl)-3-butene-2-one]
[4]; September 11
  Mean number of WCR adults per sticky trap (±standard deviation) after 24 hours: 2.0 ± 3.7^a per sticky trap
[5]; September 11
  Mean number of SCR adults per sticky trap (±standard deviation) after 24 hours: 1.0 ± 0.8^a per sticky trap

## C=CCc1ccccc1 [VIII, allylbenzene]
[4]; August 4 second year
  Mean number of WCR adults per sticky trap (±standard deviation) after 24 hours: 10.0 ± 1.4^a per sticky trap
[4]; August 5 first year
  Mean number of WCR adults per sticky trap (±standard deviation) after 24 hours: 1.0 ± 0.8^a per sticky trap
[5]; August 4 second year
  Mean number of SCR adults per sticky trap (±standard deviation) after 24 hours: 12.4 ± 7.2^b per sticky trap
[5]; August 5 first year
  Mean number of SCR adults per sticky trap (±standard deviation) after 24 hours: 24.7 ± 16.9^a per sticky trap

## COCc1ccc(OC)cc1 [V, 4-methoxy benzyl methyl ether]
[4]; August 29
  Relative percent activity as compared with the highest mean in the column (WCR): 32%
  Mean number of WCR per sticky trap (±standard deviation) after 24 hours: 46.7 ± 29.6 per sticky trap
[4]; July 30
  Relative percent activity as compared with the highest mean in the column (WCR): 46%
  Mean number of WCR per sticky trap (±standard deviation) after 24 hours: 37.7 ± 23.4 per sticky trap

## NCc1ccccc1 [benzylamine]
[1]
  Mean number of NCR per trap (± standard deviation): 57.5 ± 29.6b* per trap

## NCCCCc1ccccc1 [phenylbutylamine]
[1]
  Mean number of NCR per trap (± standard deviation): 12.2 ± 6.1a per trap

## NCCc1ccccc1 [phenylethylamine]
[1]
  Mean number of NCR per trap (± standard deviation): 206.7 ± 32.3d per trap
[1]; day 1 after single 100 mg dosage on cotton wick
  Mean number (control subtracted) of NCR per trap: 85.9 per trap
[1]; day 2 after single 100 mg dosage on cotton wick
  Mean number (control subtracted) of NCR per trap: 125.3 per trap
[1]; day 3 after single 100 mg dosage on cotton wick
  Mean number (control subtracted) of NCR per trap: 39.4 per trap
[1]; day 4 after single 100 mg dosage on cotton wick
  Mean number (control subtracted) of NCR per trap: 27.5 per trap
[1]; day 5 after single 100 mg dosage on cotton wick
  Mean number (control subtracted) of NCR per trap: 155.4 per trap
[1]; day 6 after single 100 mg dosage on cotton wick
  Mean number (control subtracted) of NCR per trap: 44.2 per trap
[1]; day 7 after single 100 mg dosage on cotton wick
  Mean number (control subtracted) of NCR per trap: 38.4 per trap
[1]; day 8 after single 100 mg dosage on cotton wick
  Mean number (control subtracted) of NCR per trap: 17.5 per trap
[1]; day 11 after single 100 mg dosage on cotton wick
  Mean number (control subtracted) of NCR per trap: 3.8 per trap

## COc1ccc(CC#N)cc1 [VII, 4-methoxyphenyl acetonitrile]
[4]; August 29
  Relative percent activity as compared with the highest mean in the column (WCR): 78%
  Mean number of WCR per sticky trap (±standard deviation) after 24 hours: 114.5 ± 83.4 per sticky trap
[4]; July 30
  Relative percent activity as compared with the highest mean in the column (WCR): 46%
  Mean number of WCR per sticky trap (±standard deviation) after 24 hours: 37.5 ± 8.4 per sticky trap

## COc1ccccc1C=CC=O [XIII, 2-methoxycinnamaldehyde]
[4]; August 4 second year
  Mean number of WCR adults per sticky trap (±standard deviation) after 24 hours: 53.0 ± 14.7^c per sticky trap
[5]; August 4 second year
  Mean number of SCR adults per sticky trap (±standard deviation) after 24 hours: 12.2 ± 9.9^b per sticky trap

## CC(=O)C=Cc1ccccc1 [XVII, phenyl-3-butone-2-one ketone]
[4]; September 11
  Mean number of WCR adults per sticky trap (±standard deviation) after 24 hours: 0.0 per sticky trap
[5]; September 11
  Mean number of SCR adults per sticky trap (±standard deviation) after 24 hours: 5.0 ± 3.7^b per sticky trap

## C=Cc1ccc(OC)cc1 [III, 4-methoxy-1-vinyl benzene]
[4]; August 29
  Relative percent activity as compared with the highest mean in the column (WCR): 15%
  Mean number of WCR per sticky trap (±standard deviation) after 24 hours: 21.5 ± 6.5 per sticky trap
[4]; July 30
  Relative percent activity as compared with the highest mean in the column (WCR): 40%
  Mean number of WCR per sticky trap (±standard deviation) after 24 hours: 32.2 ± 13.5 per sticky trap
